According to the supplement of paper PMC10307832:

Legend:
Assay in all cases: relative viability (nuclei count vs DMSO), 5 days (fraction); higher = more cells survive
[1] = compound: C1CSC2=C(C(=O)N1)SC3=C2C=C(C=C3)O [kb NB 142-70] + C[C@@H](Oc1cc(-c2cnn(C3CCNCC3)c2)cnc1N)c1c(Cl)ccc(F)c1Cl [Crizotinib] (partner 1 µM)
Procedure, shortened: (§1)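 Relative viability equals treated-well nuclei counts divided by vehicle-well nuclei counts. Counts came from 4× images of lung cancer cell lines grown in 1536-well plates for 5 days after pin-tool dosing on the day after seeding. Dosing used one drug alone or a fixed anchor-drug dose plus five library-drug doses (not always all listed) in √10 steps, and values are medians of duplicate plates.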

[2] = compound: C1CSC2=C(C(=O)N1)SC3=C2C=C(C=C3)O [kb NB 142-70] + C[C@]1(O)C[C@@H](c2nc(-c3ccc4ccc(-c5ccccc5)nc4c3)c3c(N)nccn32)C1 [Linsitinib] (partner 1 µM)
Procedure, shortened: as §1

[3] = compound: C1CSC2=C(C(=O)N1)SC3=C2C=C(C=C3)O [kb NB 142-70] + CS(=O)(=O)N1CCN(Cc2cc3nc(-c4cccc5[nH]ncc45)nc(N4CCOCC4)c3s2)CC1 [Pictilisib] (partner 1 µM)
Procedure, shortened: as §1

[4] = compound: C1CSC2=C(C(=O)N1)SC3=C2C=C(C=C3)O [kb NB 142-70] + Cc1cc(Nc2cc(N3CCN(C)CC3)nc(Sc3ccc(NC(=O)C4CC4)cc3)n2)n[nH]1 [Tozasertib] (partner 0.1 µM)
Procedure, shortened: as §1

[5] = compound: NCC(=O)Nc1ccc(-n2nc(C(F)(F)F)cc2-c2ccc3c(ccc4ccccc43)c2)cc1 + CC1(C)CCC(c2ccc(Cl)cc2)=C(CN2CCN(c3ccc(C(=O)NS(=O)(=O)c4ccc(N[C@H](CCN5CCOCC5)CSc5ccccc5)c(S(=O)(=O)C(F)(F)F)c4)cc3)CC2)C1 [Navitoclax] (partner 0.5 µM)
Procedure, shortened: as §1

[6] = compound: C1CSC2=C(C(=O)N1)SC3=C2C=C(C=C3)O [kb NB 142-70] + COc1cccc2cc(-c3nc([C@H]4CC[C@H](C(=O)O)CC4)n4ncnc(N)c34)[nH]c12 [OSI-027] (partner 0.5 µM)
Procedure, shortened: as §1

NCI-H1734
relative viability ([1]; first compound 0.1 µM): 0.68 | relative viability ([1]; first compound 1 µM): 0.652 | relative viability ([1]; first compound 3.162 µM): 0.383 | relative viability ([2]; first compound 0.1 µM): 0.813 | relative viability ([2]; first compound 1 µM): 0.734 | relative viability ([2]; first compound 3.162 µM): 0.553 | relative viability ([3]; first compound 0.1 µM): 0.429 | relative viability ([3]; first compound 1 µM): 0.432 | relative viability ([3]; first compound 3.162 µM): 0.363 | relative viability ([4]; first compound 0.1 µM): 0.271 | relative viability ([4]; first compound 1 µM): 0.263 | relative viability ([4]; first compound 3.162 µM): 0.234 | relative viability ([5]; first compound 0.02 µM): 0.889 | relative viability ([5]; first compound 0.06325 µM): 0.868 | relative viability ([5]; first compound 0.2 µM): 0.91 | relative viability ([5]; first compound 0.6325 µM): 0.787 | relative viability ([5]; first compound 2 µM): 0.787 | relative viability ([6]; first compound 0.1 µM): 0.584 | relative viability ([6]; first compound 1 µM): 0.509 | relative viability ([6]; first compound 3.162 µM): 0.396

NCI-H1755
relative viability ([1]; first compound 0.1 µM): 0.852 | relative viability ([1]; first compound 1 µM): 0.923 | relative viability ([1]; first compound 3.162 µM): 0.915 | relative viability ([2]; first compound 0.1 µM): 1 | relative viability ([2]; first compound 1 µM): 0.991 | relative viability ([2]; first compound 3.162 µM): 1.06 | relative viability ([3]; first compound 0.1 µM): 0.462 | relative viability ([3]; first compound 1 µM): 0.504 | relative viability ([3]; first compound 3.162 µM): 0.431 | relative viability ([4]; first compound 0.1 µM): 0.627 | relative viability ([4]; first compound 1 µM): 0.492 | relative viability ([4]; first compound 3.162 µM): 0.63 | relative viability ([5]; first compound 0.02 µM): 1.03 | relative viability ([5]; first compound 0.06325 µM): 1.04 | relative viability ([5]; first compound 0.2 µM): 1.03 | relative viability ([5]; first compound 0.6325 µM): 1.03 | relative viability ([5]; first compound 2 µM): 0.991 | relative viability ([6]; first compound 0.1 µM): 0.741 | relative viability ([6]; first compound 1 µM): 0.722 | relative viability ([6]; first compound 3.162 µM): 0.737

NCI-H1915
relative viability ([1]; first compound 0.1 µM): 0.887 | relative viability ([1]; first compound 1 µM): 0.915 | relative viability ([1]; first compound 3.162 µM): 0.481 | relative viability ([2]; first compound 0.1 µM): 1.11 | relative viability ([2]; first compound 1 µM): 1.11 | relative viability ([2]; first compound 3.162 µM): 0.716 | relative viability ([3]; first compound 0.1 µM): 1.01 | relative viability ([3]; first compound 1 µM): 0.889 | relative viability ([3]; first compound 3.162 µM): 0.905 | relative viability ([4]; first compound 0.1 µM): 0.445 | relative viability ([4]; first compound 1 µM): 0.397 | relative viability ([4]; first compound 3.162 µM): 0.276 | relative viability ([5]; first compound 0.02 µM): 0.771 | relative viability ([5]; first compound 0.06325 µM): 0.804 | relative viability ([5]; first compound 0.2 µM): 0.812 | relative viability ([5]; first compound 0.6325 µM): 0.767 | relative viability ([5]; first compound 2 µM): 0.803 | relative viability ([6]; first compound 0.1 µM): 0.648 | relative viability ([6]; first compound 1 µM): 0.619 | relative viability ([6]; first compound 3.162 µM): 0.396

NCI-H1944
relative viability ([1]; first compound 0.1 µM): 1.02 | relative viability ([1]; first compound 1 µM): 1.31 | relative viability ([1]; first compound 3.162 µM): 1.23 | relative viability ([2]; first compound 0.1 µM): 1.17 | relative viability ([2]; first compound 1 µM): 1.24 | relative viability ([2]; first compound 3.162 µM): 1.18 | relative viability ([3]; first compound 0.1 µM): 0.358 | relative viability ([3]; first compound 1 µM): 0.375 | relative viability ([3]; first compound 3.162 µM): 0.41 | relative viability ([4]; first compound 0.1 µM): 0.244 | relative viability ([4]; first compound 1 µM): 0.244 | relative viability ([4]; first compound 3.162 µM): 0.27 | relative viability ([5]; first compound 0.02 µM): 1.06 | relative viability ([5]; first compound 0.06325 µM): 1.08 | relative viability ([5]; first compound 0.2 µM): 1.05 | relative viability ([5]; first compound 0.6325 µM): 1.04 | relative viability ([5]; first compound 2 µM): 1.07 | relative viability ([6]; first compound 0.1 µM): 0.386 | relative viability ([6]; first compound 1 µM): 0.443 | relative viability ([6]; first compound 3.162 µM): 0.426

NCI-H1975
relative viability ([1]; first compound 0.1 µM): 0.899 | relative viability ([1]; first compound 1 µM): 0.959 | relative viability ([1]; first compound 3.162 µM): 0.842 | relative viability ([2]; first compound 0.1 µM): 0.946 | relative viability ([2]; first compound 1 µM): 1.11 | relative viability ([2]; first compound 3.162 µM): 0.519 | relative viability ([3]; first compound 0.1 µM): 0.263 | relative viability ([3]; first compound 1 µM): 0.264 | relative viability ([3]; first compound 3.162 µM): 0.178 | relative viability ([4]; first compound 0.1 µM): 0.787 | relative viability ([4]; first compound 1 µM): 0.746 | relative viability ([4]; first compound 3.162 µM): 0.28 | relative viability ([5]; first compound 0.02 µM): 1.04 | relative viability ([5]; first compound 0.06325 µM): 1.1 | relative viability ([5]; first compound 0.2 µM): 1.2 | relative viability ([5]; first compound 0.6325 µM): 1.11 | relative viability ([5]; first compound 2 µM): 0.997 | relative viability ([6]; first compound 0.1 µM): 0.808 | relative viability ([6]; first compound 1 µM): 0.741 | relative viability ([6]; first compound 3.162 µM): 0.597

NCI-H1993
relative viability ([1]; first compound 0.1 µM): 0.842 | relative viability ([1]; first compound 1 µM): 0.892 | relative viability ([1]; first compound 3.162 µM): 0.854 | relative viability ([2]; first compound 0.1 µM): 0.792 | relative viability ([2]; first compound 1 µM): 0.715 | relative viability ([2]; first compound 3.162 µM): 0.67 | relative viability ([3]; first compound 0.1 µM): 0.917 | relative viability ([3]; first compound 1 µM): 0.787 | relative viability ([3]; first compound 3.162 µM): 0.649 | relative viability ([4]; first compound 0.1 µM): 0.604 | relative viability ([4]; first compound 1 µM): 0.648 | relative viability ([4]; first compound 3.162 µM): 0.536 | relative viability ([5]; first compound 0.02 µM): 0.945 | relative viability ([5]; first compound 0.06325 µM): 1.06 | relative viability ([5]; first compound 0.2 µM): 1.02 | relative viability ([5]; first compound 0.6325 µM): 1 | relative viability ([5]; first compound 2 µM): 0.956 | relative viability ([6]; first compound 0.1 µM): 0.51 | relative viability ([6]; first compound 1 µM): 0.578 | relative viability ([6]; first compound 3.162 µM): 0.479

NCI-H2009
relative viability ([1]; first compound 0.1 µM): 1 | relative viability ([1]; first compound 1 µM): 1.12 | relative viability ([1]; first compound 3.162 µM): 0.652 | relative viability ([2]; first compound 0.1 µM): 1.26 | relative viability ([2]; first compound 1 µM): 1.26 | relative viability ([2]; first compound 3.162 µM): 0.955 | relative viability ([3]; first compound 0.1 µM): 0.857 | relative viability ([3]; first compound 1 µM): 0.814 | relative viability ([3]; first compound 3.162 µM): 0.564 | relative viability ([4]; first compound 0.1 µM): 0.75 | relative viability ([4]; first compound 1 µM): 0.649 | relative viability ([4]; first compound 3.162 µM): 0.48 | relative viability ([5]; first compound 0.02 µM): 1.12 | relative viability ([5]; first compound 0.06325 µM): 1.15 | relative viability ([5]; first compound 0.2 µM): 1.27 | relative viability ([5]; first compound 0.6325 µM): 1.11 | relative viability ([5]; first compound 2 µM): 1.13 | relative viability ([6]; first compound 0.1 µM): 0.678 | relative viability ([6]; first compound 1 µM): 0.68 | relative viability ([6]; first compound 3.162 µM): 0.395

NCI-H2023
relative viability ([1]; first compound 0.1 µM): 0.699 | relative viability ([1]; first compound 1 µM): 0.761 | relative viability ([1]; first compound 3.162 µM): 0.551 | relative viability ([2]; first compound 0.1 µM): 0.698 | relative viability ([2]; first compound 1 µM): 0.673 | relative viability ([2]; first compound 3.162 µM): 0.396 | relative viability ([3]; first compound 0.1 µM): 0.258 | relative viability ([3]; first compound 1 µM): 0.207 | relative viability ([3]; first compound 3.162 µM): 0.227 | relative viability ([4]; first compound 0.1 µM): 0.367 | relative viability ([4]; first compound 1 µM): 0.358 | relative viability ([4]; first compound 3.162 µM): 0.276 | relative viability ([5]; first compound 0.02 µM): 1.05 | relative viability ([5]; first compound 0.06325 µM): 1.12 | relative viability ([5]; first compound 0.2 µM): 1.01 | relative viability ([5]; first compound 0.6325 µM): 1 | relative viability ([5]; first compound 2 µM): 1.01 | relative viability ([6]; first compound 0.1 µM): 0.485 | relative viability ([6]; first compound 1 µM): 0.417 | relative viability ([6]; first compound 3.162 µM): 0.258
